Data set [1] has as its target T1, 97 kinases (Homo sapiens, UniProt P52333).
T1 construct: purchased Ambit Biosciences (scanEDGE / KINOMEscan) scanEDGE 97 kinase panel; host or cells: T7 phage in E. coli BL21-derived host; remaining kinases in HEK-293 cells
The data set is described as follows: scanEDGE off-target screen. As to conditions: read-out: %Ctrl JAK3(JH1domain-catalytic). The data set is classed as binding.

The target in data set [2] is T2, 97 kinases (Homo sapiens, UniProt O15075).
T2 construct: purchased Ambit Biosciences (scanEDGE / KINOMEscan) scanEDGE 97 kinase panel; host or cells: T7 phage in E. coli BL21-derived host; remaining kinases in HEK-293 cells
T2 sequence (O15075 whole entry): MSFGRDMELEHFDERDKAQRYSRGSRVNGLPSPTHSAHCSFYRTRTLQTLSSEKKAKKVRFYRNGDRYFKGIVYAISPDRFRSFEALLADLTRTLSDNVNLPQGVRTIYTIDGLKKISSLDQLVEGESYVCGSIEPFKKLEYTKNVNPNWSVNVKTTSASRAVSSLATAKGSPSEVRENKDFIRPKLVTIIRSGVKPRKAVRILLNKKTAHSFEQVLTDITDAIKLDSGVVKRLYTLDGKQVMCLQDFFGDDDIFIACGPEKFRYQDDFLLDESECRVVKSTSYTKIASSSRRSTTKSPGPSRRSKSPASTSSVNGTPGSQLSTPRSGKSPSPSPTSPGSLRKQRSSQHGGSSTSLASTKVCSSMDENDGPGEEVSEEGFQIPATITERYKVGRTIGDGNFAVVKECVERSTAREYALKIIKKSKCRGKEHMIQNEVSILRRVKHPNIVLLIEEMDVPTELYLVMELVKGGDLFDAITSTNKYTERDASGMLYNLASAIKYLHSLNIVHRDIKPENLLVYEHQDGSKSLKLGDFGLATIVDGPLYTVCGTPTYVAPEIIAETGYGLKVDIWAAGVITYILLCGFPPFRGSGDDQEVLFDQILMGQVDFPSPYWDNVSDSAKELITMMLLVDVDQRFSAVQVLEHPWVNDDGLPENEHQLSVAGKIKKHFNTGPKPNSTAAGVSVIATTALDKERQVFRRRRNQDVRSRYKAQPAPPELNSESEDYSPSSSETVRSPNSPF
The data set is described as follows: scanEDGE off-target screen. The data set is classed as binding. To be noted: read-out: %Ctrl DCAMKL1.

For data set [3], the target named is T3, 97 kinases (Homo sapiens, UniProt P00519, T315I).
T3 construct: purchased Ambit Biosciences (scanEDGE / KINOMEscan) scanEDGE 97 kinase panel; host or cells: T7 phage in E. coli BL21-derived host; remaining kinases in HEK-293 cells
The data set is described as follows: scanEDGE off-target screen. The data set is classed as binding. As to conditions: read-out: %Ctrl ABL1(T315I)-phosphorylated.

The target in data set [4] is T4, 97 kinases (Homo sapiens, UniProt Q9BVS4).
T4 construct: purchased Ambit Biosciences (scanEDGE / KINOMEscan) scanEDGE 97 kinase panel; host or cells: T7 phage in E. coli BL21-derived host; remaining kinases in HEK-293 cells
T4 sequence (Q9BVS4 whole entry): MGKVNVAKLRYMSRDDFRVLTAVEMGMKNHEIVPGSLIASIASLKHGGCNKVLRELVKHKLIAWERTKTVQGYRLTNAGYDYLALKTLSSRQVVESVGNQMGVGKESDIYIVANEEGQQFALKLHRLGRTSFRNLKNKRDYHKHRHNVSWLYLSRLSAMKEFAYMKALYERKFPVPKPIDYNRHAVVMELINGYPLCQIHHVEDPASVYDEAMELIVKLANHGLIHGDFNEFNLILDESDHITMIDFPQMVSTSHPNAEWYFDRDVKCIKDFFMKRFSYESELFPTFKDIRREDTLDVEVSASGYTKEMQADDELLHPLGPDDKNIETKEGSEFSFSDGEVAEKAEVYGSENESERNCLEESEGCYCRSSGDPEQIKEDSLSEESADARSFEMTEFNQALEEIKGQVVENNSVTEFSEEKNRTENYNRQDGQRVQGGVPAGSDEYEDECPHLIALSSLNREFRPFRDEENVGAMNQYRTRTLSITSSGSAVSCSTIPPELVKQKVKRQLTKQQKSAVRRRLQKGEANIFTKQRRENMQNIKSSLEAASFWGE
In words: scanEDGE off-target screen. The data set is classed as binding. As to conditions: read-out: %Ctrl RIOK2.

Data set [5] concerns the target T5, 97 kinases (Homo sapiens, UniProt P17612).
T5 construct: purchased Ambit Biosciences (scanEDGE / KINOMEscan) scanEDGE 97 kinase panel; host or cells: T7 phage in E. coli BL21-derived host; remaining kinases in HEK-293 cells
In words: scanEDGE off-target screen. The data set is classed as binding. To be noted: read-out: %Ctrl PKAC-alpha.

The target in data set [6] is T6, 97 kinases (Homo sapiens, UniProt P00533, L858R).
T6 construct: purchased Ambit Biosciences (scanEDGE / KINOMEscan) scanEDGE 97 kinase panel; host or cells: T7 phage in E. coli BL21-derived host; remaining kinases in HEK-293 cells
In words: scanEDGE off-target screen. The data set is classed as binding. As to conditions: read-out: %Ctrl EGFR(L858R).

Data set [7] concerns the target T7, 97 kinases (Homo sapiens, UniProt P78368).
T7 construct: purchased Ambit Biosciences (scanEDGE / KINOMEscan) scanEDGE 97 kinase panel; host or cells: T7 phage in E. coli BL21-derived host; remaining kinases in HEK-293 cells
The data set is described as follows: scanEDGE off-target screen. The data set is classed as binding. To be noted: read-out: %Ctrl CSNK1G2.

For data set [8], the target named is T8, 97 kinases (Homo sapiens, UniProt Q9BUB5).
T8 construct: purchased Ambit Biosciences (scanEDGE / KINOMEscan) scanEDGE 97 kinase panel; host or cells: T7 phage in E. coli BL21-derived host; remaining kinases in HEK-293 cells
T8 sequence (Q9BUB5 whole entry): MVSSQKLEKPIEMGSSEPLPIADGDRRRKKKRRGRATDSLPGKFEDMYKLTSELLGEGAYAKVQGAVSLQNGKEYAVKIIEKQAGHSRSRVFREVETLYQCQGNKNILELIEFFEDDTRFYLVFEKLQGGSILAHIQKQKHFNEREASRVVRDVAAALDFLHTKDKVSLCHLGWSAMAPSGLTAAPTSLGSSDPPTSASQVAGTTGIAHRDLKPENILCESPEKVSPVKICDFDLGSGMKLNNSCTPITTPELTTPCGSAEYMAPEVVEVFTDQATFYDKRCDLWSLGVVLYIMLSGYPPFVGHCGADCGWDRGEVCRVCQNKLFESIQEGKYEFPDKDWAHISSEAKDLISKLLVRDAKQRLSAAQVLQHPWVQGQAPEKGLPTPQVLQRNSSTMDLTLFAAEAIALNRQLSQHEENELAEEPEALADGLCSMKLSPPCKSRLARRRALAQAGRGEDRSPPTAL
In words: scanEDGE off-target screen. Type of data set: binding. To be noted: read-out: %Ctrl MKNK1.

The target in data set [9] is T9, 97 kinases (Homo sapiens, UniProt P15056).
T9 construct: purchased Ambit Biosciences (scanEDGE / KINOMEscan) scanEDGE 97 kinase panel; host or cells: T7 phage in E. coli BL21-derived host; remaining kinases in HEK-293 cells
T9 sequence (P15056 whole entry): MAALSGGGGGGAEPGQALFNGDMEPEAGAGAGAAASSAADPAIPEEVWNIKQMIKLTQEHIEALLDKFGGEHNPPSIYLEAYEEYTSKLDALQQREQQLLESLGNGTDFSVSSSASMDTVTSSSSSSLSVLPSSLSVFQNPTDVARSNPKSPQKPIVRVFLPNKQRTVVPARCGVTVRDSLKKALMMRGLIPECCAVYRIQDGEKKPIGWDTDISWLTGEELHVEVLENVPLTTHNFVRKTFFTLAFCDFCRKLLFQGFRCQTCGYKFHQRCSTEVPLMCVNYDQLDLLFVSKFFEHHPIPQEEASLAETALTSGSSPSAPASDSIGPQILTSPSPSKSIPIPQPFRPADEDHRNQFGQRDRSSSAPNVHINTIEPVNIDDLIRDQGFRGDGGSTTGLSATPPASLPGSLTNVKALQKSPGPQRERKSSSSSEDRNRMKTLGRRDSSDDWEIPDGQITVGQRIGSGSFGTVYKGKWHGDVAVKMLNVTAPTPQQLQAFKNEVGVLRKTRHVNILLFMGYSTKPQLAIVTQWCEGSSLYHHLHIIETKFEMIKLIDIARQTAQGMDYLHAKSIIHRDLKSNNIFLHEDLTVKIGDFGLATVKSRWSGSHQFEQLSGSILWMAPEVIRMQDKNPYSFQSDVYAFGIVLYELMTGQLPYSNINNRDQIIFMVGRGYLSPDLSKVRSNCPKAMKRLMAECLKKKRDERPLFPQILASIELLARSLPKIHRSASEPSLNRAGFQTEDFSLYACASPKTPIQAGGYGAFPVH
The data set is described as follows: scanEDGE off-target screen. The data set is classed as binding. To be noted: read-out: %Ctrl BRAF.

The target in data set [10] is T10, 97 kinases (Homo sapiens, UniProt P45983).
T10 construct: purchased Ambit Biosciences (scanEDGE / KINOMEscan) scanEDGE 97 kinase panel; host or cells: T7 phage in E. coli BL21-derived host; remaining kinases in HEK-293 cells
T10 sequence (P45983 whole entry): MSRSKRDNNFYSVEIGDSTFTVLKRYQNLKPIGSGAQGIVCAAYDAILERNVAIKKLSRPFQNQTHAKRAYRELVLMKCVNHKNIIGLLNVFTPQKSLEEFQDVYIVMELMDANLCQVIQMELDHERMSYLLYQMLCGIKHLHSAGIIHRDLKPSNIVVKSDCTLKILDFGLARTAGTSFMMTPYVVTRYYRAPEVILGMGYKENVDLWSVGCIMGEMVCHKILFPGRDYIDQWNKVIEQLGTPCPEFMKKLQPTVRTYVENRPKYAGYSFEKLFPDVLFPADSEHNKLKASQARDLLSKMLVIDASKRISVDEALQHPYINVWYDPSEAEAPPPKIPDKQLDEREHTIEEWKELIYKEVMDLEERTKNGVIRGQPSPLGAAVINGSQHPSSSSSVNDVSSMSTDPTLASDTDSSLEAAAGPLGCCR
In words: scanEDGE off-target screen. As to conditions: read-out: %Ctrl JNK1. Type of data set: binding.

The target of another data set is T11, CYP2A6 (Homo sapiens, UniProt P11509).
T11 construct: PU-HZ151 (1 µM) was incubated with human liver microsomes (0.5 mg protein mL^−1); tissue Life Technologies HMMCPL; host or cells: human liver microsomes
T11 sequence (P11509 1-494): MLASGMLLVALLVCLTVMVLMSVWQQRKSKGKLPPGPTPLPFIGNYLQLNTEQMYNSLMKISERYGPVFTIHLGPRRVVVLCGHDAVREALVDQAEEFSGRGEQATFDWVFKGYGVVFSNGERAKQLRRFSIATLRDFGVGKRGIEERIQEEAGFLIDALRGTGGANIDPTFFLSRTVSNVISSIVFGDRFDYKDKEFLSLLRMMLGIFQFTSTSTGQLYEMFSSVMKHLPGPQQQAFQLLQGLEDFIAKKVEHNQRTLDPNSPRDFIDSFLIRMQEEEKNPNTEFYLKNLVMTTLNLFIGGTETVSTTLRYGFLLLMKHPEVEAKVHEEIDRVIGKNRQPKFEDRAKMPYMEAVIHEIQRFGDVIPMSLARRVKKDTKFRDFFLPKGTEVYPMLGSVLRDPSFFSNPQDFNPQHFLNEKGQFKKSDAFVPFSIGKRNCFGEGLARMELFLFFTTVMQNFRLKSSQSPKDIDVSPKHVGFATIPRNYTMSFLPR
In words: Cytochrome P450 profiling, tranylcypromine. Type of data set: in vitro ADME. As to conditions: for % PU-HZ151 remaining: Tranylcypromine. The protocol:
(§1) To identify cytochrome P450 enzymes responsible for PU-HZ151’s metabolism in human liver microsomes the following procedure was followed. Phosphate buffer (100 mM, pH 7.4) was prepared monthly and stored at 4 °C. Frozen stock solutions of human liver microsomes (Life Technologies; Cat# HMMCPL) were used once after thawing and were not refrozen. NADPH stock solution (50 mM) in distilled water was prepared fresh daily. […] The stock solutions of these P450 inhibitors were prepared in DMSO. […] The concentration of the chemical inhibitors used in the assay were furafylline (10 μM), tranylcypromine (2 μM), ketoconazole (1 μM), troleandomycin (20 μM), orphenadrine (50 μM), montelukast (3 μM), sulfaphenazole (10 μM), benzylnirvanol (1 μM), quinidine (1 μM), and 1-aminobenzotriazole (1 mM) for all the P450 enzymes. Timing of the reactions was started following the addition of NADPH/magnesium chloride mix and PU-HZ151. Time-dependent chemical inhibitors (furafylline, troleandomycin, orphenadrine, and 1-aminobenzotriazole) were preincubated with human microsomes in the presence of NADPH and magnesium chloride for 15 min before the addition of PU-HZ151 and timing of reactions was started after addition of PU-HZ151. […] Following brief vortexing and centrifugation, a 200 µL aliquot of the supernatant was transferred to a tube, and 10 µL of haloperidol (1 µg mL^−1) as internal standard was added. Following brief vortexing and centrifugation, 50 µL of supernatant was added to a 96-well plate for subsequent LC-MS/MS analysis. PU-HZ151 was similarly tested as above in the absence of CYP inhibitors for comparative purposes. All samples were assayed in duplicate. […] This was similarly performed for incubations of PU-HZ151 performed in the absence of CYP inhibitor.

Another data set addresses T12, CYP2B6 (Homo sapiens, UniProt P20813).
T12 construct: tissue Life Technologies HMMCPL; host or cells: human liver microsomes
T12 sequence (P20813 1-491): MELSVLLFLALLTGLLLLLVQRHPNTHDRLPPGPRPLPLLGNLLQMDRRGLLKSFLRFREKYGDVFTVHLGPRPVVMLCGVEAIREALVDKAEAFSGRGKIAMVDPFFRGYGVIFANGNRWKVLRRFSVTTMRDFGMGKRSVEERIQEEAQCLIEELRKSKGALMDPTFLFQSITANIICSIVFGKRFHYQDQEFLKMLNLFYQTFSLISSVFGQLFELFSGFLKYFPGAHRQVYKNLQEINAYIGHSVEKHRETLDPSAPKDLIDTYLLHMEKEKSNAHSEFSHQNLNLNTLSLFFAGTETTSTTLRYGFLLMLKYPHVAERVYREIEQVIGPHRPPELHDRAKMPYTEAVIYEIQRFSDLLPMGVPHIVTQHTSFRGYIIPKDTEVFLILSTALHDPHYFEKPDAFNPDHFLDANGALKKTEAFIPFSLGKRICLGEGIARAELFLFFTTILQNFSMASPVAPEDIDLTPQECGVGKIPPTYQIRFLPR
The data set is described as follows: Cytochrome P450 profiling, orphenadrine. The data set is classed as in vitro ADME. To be noted: for % PU-HZ151 remaining: Orphenadrine. The protocol:
as §1

The target in a further data set is T13, CYP3A4 (Homo sapiens, UniProt P08684).
T13 construct: tissue Life Technologies HMMCPL; host or cells: human liver microsomes
T13 sequence (P08684 whole entry): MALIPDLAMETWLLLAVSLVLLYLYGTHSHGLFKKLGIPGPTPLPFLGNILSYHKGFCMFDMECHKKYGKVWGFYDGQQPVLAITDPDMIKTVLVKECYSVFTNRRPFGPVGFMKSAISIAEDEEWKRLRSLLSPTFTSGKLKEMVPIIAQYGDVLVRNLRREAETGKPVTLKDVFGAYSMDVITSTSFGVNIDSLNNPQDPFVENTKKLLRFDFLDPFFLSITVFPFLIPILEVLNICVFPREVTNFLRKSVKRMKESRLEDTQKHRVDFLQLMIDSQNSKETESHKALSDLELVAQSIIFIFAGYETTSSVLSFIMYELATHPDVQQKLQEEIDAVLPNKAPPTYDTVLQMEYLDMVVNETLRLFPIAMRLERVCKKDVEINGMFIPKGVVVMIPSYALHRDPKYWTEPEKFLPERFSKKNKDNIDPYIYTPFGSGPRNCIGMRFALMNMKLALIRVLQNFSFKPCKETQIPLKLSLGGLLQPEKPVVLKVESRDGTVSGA
In words: Cytochrome P450 profiling, troleandomycin. Type of data set: in vitro ADME. As to conditions: for % PU-HZ151 remaining: Troleandomycin. The protocol: as §1

Data set [11] has as its system MDA-MB-468 tumor and organs. In words: LC/MS-MS tissue concentration 48 h after 75 mg kg-1 ip. To be noted: 48 h post 75mg/kg ip, mouse 1-4; listed as PU-HZ151. Type of data set: in vivo.

Several values for one entry are separate records, joined by “and”; a condition that tells them apart may be missing. Equal entries are not always repeated.

The values that follow come from PMC8333062, “Chemical tools for epichaperome-mediated interactome dysfunctions of the central nervous system” (Nature Communications, 2021).

T7 sequence (P78368 whole entry): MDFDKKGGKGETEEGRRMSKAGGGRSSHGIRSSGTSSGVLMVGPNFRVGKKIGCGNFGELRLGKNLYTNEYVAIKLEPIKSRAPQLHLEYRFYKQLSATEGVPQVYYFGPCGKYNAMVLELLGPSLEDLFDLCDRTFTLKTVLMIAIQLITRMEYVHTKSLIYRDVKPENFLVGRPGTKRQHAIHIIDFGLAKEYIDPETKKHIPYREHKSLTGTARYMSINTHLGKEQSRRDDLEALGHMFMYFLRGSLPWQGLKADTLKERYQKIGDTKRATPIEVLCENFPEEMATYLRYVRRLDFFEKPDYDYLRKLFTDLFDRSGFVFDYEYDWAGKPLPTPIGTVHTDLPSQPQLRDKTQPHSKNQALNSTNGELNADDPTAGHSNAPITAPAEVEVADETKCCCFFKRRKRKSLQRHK
T1 sequence (P52333 whole entry): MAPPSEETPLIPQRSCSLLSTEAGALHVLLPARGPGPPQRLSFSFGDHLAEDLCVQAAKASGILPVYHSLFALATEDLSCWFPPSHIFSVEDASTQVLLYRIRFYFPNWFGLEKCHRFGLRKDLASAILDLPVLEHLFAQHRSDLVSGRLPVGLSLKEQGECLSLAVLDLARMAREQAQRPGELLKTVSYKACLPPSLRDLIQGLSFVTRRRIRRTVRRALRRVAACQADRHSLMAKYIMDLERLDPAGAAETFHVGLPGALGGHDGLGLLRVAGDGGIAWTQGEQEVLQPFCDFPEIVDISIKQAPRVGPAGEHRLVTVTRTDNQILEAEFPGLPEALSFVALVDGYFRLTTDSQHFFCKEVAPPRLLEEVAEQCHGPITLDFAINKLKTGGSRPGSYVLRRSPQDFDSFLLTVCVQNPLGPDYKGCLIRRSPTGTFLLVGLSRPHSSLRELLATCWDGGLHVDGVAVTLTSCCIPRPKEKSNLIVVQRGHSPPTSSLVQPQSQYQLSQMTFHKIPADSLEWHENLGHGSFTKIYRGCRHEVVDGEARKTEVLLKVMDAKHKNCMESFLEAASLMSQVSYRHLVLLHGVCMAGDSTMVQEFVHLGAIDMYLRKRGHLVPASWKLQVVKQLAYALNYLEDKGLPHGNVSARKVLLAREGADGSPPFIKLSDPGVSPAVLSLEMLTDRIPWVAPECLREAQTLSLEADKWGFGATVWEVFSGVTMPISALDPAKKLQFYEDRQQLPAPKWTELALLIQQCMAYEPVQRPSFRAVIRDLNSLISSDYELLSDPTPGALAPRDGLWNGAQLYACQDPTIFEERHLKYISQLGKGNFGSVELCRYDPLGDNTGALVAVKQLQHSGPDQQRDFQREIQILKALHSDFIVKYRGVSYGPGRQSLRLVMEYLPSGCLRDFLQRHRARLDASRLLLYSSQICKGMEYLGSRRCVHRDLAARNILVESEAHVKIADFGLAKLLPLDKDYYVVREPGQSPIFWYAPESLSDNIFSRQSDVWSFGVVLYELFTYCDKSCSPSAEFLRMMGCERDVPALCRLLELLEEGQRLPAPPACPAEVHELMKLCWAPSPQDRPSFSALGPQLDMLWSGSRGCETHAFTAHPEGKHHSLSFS

Turning to `CC(C)(C)CNCCn1c(Sc2cc3c(cc2I)OCO3)nc2c(N)ncnc21` [Compound 85], the remaining binding at 10 µM at 97 kinases [1] amounted to 86%; at 97 kinases [2], 78%; on 97 kinases [3], 96%; at 97 kinases [4], 94%; on 97 kinases [5], 87%; on 97 kinases [6], 93%. Moreover, the remaining binding at 10 µM at 97 kinases [7] was 100%; at 97 kinases [8], 100%; at 97 kinases [9], 100%; at 97 kinases [10] it was 96%. In addition, the “% PU-HZ151 remaining” value on CYP2A6 (15 min) was 57.2%; on CYP2A6 (30 min) it was 36.6%; on CYP2A6 (60 min), 18.4%; on CYP2B6 (15 min) it was 62%; on CYP2B6 (30 min), 42.7%; at CYP2B6 (60 min), 25.6%. For the same compound, the “% PU-HZ151 remaining” value was 79.8% at CYP3A4 (15 min), 66.9% at CYP3A4 (30 min) and 50.9% at CYP3A4 (60 min). The “inhibition of PU-HZ151 metabolism” value on CYP2A6 (tranylcypromine) was “essentially no effect”; against CYP2B6 (orphenadrine) it was 10%; at CYP3A4 (troleandomycin), 40%. Moreover, in [11], the “[PU-HZ151] Liver” value is 0.002 µM. Besides, in data set [11], the “[PU-HZ151] MDA-MB-468 TUMOR” value was 1.786 µM and 1.509 µM and 1.067 µM.
